System: Human myeloma SK-Ly-18 cells
Assay: Therapeutic effect on transplanted tumor in nude mice (Test Example 4)
Format: in vivo, BALB/C nu/nu mice
Settings: intravenous, amount corresponding to 7.5 mg/kg ADM, on the 7th day after transplantation, compared with control group, FIG. 2
Description: Human myeloma SK-Ly-18 cells were suspended in RPMI-1640 medium containing 10% fetal calf serum at a concentration of 2×10^8 cells/ml, and the suspension was mixed with Matrigel (registered trademark; Becton Dickinson Labware, USA) in the ratio of 1:1 (v/v). The mixture (0.1 ml, 1×10^7 cells/mouse) was subcutaneously transplanted into BALB/C nu/nu mice (Clea Japan, Inc.). On the 7th day after the tumor transplantation, a drug-monoclonal antibody conjugate (amount corresponding to 7.5 mg/kg ADM) or ADM (7.5 mg/kg) was intravenously administered to the mice divided in groups each consisting of 5. A control group was given physiological saline in the same manner. The major axis and the minor axis of tumor were measured at intervals, and the tumor volume was calculated as an approximation value of an ellipsoid according to the following equation.
Tumor Volume (mm^3)=(a×b^2)/2
a: major axis (mm) b: minor axis (mm)
The therapeutic effect on the transplanted tumor was evaluated in terms of V/V0, the ratio of the tumor volume on the day of evaluation (V) to that on the day of drug administration (V0).

## COc1cccc2c1C(=O)c1c(O)c3c(c(O)c1C2=O)C[C@@](O)(C(=O)CO)C[C@@H]3O[C@H]1C[C@H](N)[C@H](O)[C@H](C)O1 [ADM, Adriamycin, reference compound]
  tumor growth inhibiting effect (V/V0): a growth inhibiting effect was not observed

— US6638509B1, “Toxin conjugates” (Kyowa Hakko Kogyo, Co., Ltd., priority 1995, dated 2003)
